{"source": "patent US9675625B2", "about": "“Medicament comprising recombinant antibody against chemokine receptor CCR4” (KYOWA HAKKO KIRIN CO., LTD., priority 2003, dated 2017)", "key": {"[1]": {"test_system": "CCRF-CEM cells", "assay": "antitumor effect of KM 2760 and cyclophosphamide in combination, CCRF-CEM cells grafted in nude mouse", "assay_type": "in vivo, Balb/c nude mouse", "details": "Day 4; KM 2760 800 μg per mouse Day 0 and Day 4; CPA 65 mg/kg Day 0; tail vein", "protocol": "CCRF-CEM cells (human T cell leukemia cell line) were suspended in RPMI 1640 medium (Gibco BRL) at a concentration of 2×10^8 cells/mL, and 100 μL of the suspension was grafted intradermally in the right flank of Balb/c nude mice (Nippon Crea, male). On Day 18 after the cell grafting, a diameter of a tumor was measured with calipers, and a tumor volume was calculated using formula 2 in Example 2.\nIndividuals having the tumor volume within the range of 116 to 349 mm^3 (on average 219 mm^3) were selected, and grouped such that the average tumor volume to be almost the same. Each of the following agent A to D was administered to the mice. Incidentally, the grouping day was defined as Day 0.\nThe experiment was conducted with groups each consisting of five mice. Each of the agents was diluted with a physiological saline (Otsuka Seiyaku), and the diluent was administered from the tail vein. On Day 4, the tumor volume was measured. The antitumor effect was evaluated by comparing an average values of a tumor volume change (V/V0) on each measurement day when the tumor volume on Day 0 in each group was defined as V0."}, "[2]": {"test_system": "CCRF-CEM cells", "assay": "antitumor effect of KM 2760 and Methotrexate in combination, CCRF-CEM cells grafted in nude mouse", "assay_type": "in vivo, Balb/c nude mouse", "details": "Day 7; KM 2760 800 μg per mouse Day 0 and Day 4; MTX 15 mg/kg Day 0 to Day 4; tail vein", "method": "(§1) CCRF-CEM cells (human T cell leukemia cell line) were suspended in RPMI 1640 medium (Gibco BRL) at a concentration of 2×10^8 cells/mL, and 100 μL of the suspension was grafted into the ventral skin of Balb/c nude mice (CLEA Japan Inc. male). On Day 17 after the cell grafting, a diameter of a tumor was measured with calipers, and a tumor volume was calculated using formula 2 in Example 2.\n(§2) Individuals having the tumor volume within the range of 121 to 348 mm^3 (on average 195 mm^3) were selected, and grouped such that the average tumor volume to be almost the same. Each of the following agents A to D was administered to the mice. Incidentally, the grouping day was defined as Day 0.\n(§3) B. Group of administering KM 2760 alone: 800 μg of KM2760 was administered per mouse on Day 0 and Day 4.\nC. Group of administering Methotrexate (hereinafter referred to as MTX; Methotrexate injection solution, Nippon Weisledary K.K.) alone: 15 mg/kg of MTX was administered per mouse for 5 days from Day 0 to Day 4. […]\nThe experiment was conducted with groups each consisting of five mice. […] On Day 7, the tumor volume was measured. The antitumor effect was evaluated by comparing average values of a tumor volume change (V/V0) when the tumor volume on Day 0 in each group was defined as V0."}, "[3]": {"test_system": "CCRF-CEM cells", "assay": "antitumor effect of KM 2760 and vincristine in combination, CCRF-CEM cells grafted in nude mouse", "assay_type": "in vivo, Balb/c nude mouse", "details": "Day 10; KM 2760 800 μg per mouse Day 0 and Day 4; VCR 0.55 mg/kg Day 0; tail vein"}, "[4]": {"test_system": "CCRF-CEM cells", "assay": "antitumor effect of KM 2760 and etoposide in combination, CCRF-CEM cells grafted in nude mouse", "assay_type": "in vivo, Balb/c nude mouse", "details": "Day 7; KM 2760 800 μg per mouse Day 0 and Day 4; VP-16 10 mg/kg Day 0 to Day 4; tail vein", "method": "as §1, with “(Nippon Crea,” for “(CLEA Japan Inc.”\nas §2, with “range of from 121 to” for “range of 121 to”, “D was then administered to” for “D was administered to”\nas §3\nC. Group of administering etoposide (hereinafter referred to as VP-16; Lastet injection, Nippon Kayaku Co., Ltd.) alone: 10 mg/kg of VP-16 was administered per mouse for 5 days from Day 0 to Day 4. […]\nThe experiment was conducted with groups each consisting of five mice. […] On Day 7, the tumor volume was measured. The antitumor effect was evaluated by comparing average values of a tumor volume change (V/V0) on Day 7 when the tumor volume on Day 0 in each group was defined as V0."}, "[5]": {"test_system": "CCR4/EL4 cells", "assay": "antitumor effect of KM 2760 and IFN-α in combination, CCR4/EL4 cells grafted into tail vein of C57BL/6 mice, liver weight ratio", "assay_type": "in vivo, C57BL/6 mouse", "method": "CCR4/EL4 cells were suspended in RPMI 1640 medium (manufactured by Gibco BRL) at a concentration of 5×10^5 cells/mL, and 100 μl of the suspension was grafted into the tail vein of C57BL/6 mice (CLEA Japan Inc., male, 8 weeks old). Further, mice were grouped into A to D, and each of the agents A to D were administered to the mice. Incidentally, the day on which the tumor was grafted was defined as Day 0.\nB. Group of administering IFN-α alone: 5×10^4 units of IFN-α (Universal type I interferon, manufactured by PBL Biomedical Laboratories) was intravenously administered per mouse once a day for 5 days from Day 1 to Day 5.\nThe experiment was conducted with group A consisting of 7 mice and groups B, C and D each consisting of 6 mice. […] The weight of all mice was measured on Day 14. After etherization and exsanguination, mice were brought to euthanasia by dislocation of the cervical spine. The liver was extracted, and the weight of the liver was then measured. A ratio of the liver weight to the weight of each individual (hereinafter referred to as a weight ration of a liver) was calculated by percentage.\nThe antitumor effect was evaluated by comparing the liver weight ratio (average value of six mice) of untreated healthy mice measured simultaneously and the liver weight ratio of each group increased by metastasis of tumor cells.\nFurther, the residual amount of tumor cells in the liver in each group was calculated as a T/C value using the following formula. T/C=(average values of a weight ration of a liver of each group−average value of a weight ration of a liver of an untreated mouse)/(average value of a weight ration of a liver of a negative control group−average value of a weight ration of a liver of an untreated mouse) (Formula 4)"}, "[6]": {"test_system": "CCR4/EL4 cells", "protocol": "CCR4/EL4 cells (WO 01/64754) were suspended in RPMI 1640 medium (manufactured by Gibco BRL) at a concentration of 1×10^5 cells/mL, and 200 μL of the suspension was grafted into the peritoneal cavity of C57BL/6 mice (CLEA Japan Inc., male, 8 weeks old). After, mice was grouped into A to D, and each of the agents A to D was administered to each mouse. The day on which the tumor was grafted was defined as Day 0.\nB. Group of administering M-CSF alone: 100 μg of M-CSF (Leucoprol, manufactured by Kyowa Hakko Kogyo Co., Ltd.) was intraperitoneally administered per mouse twice a day from Day-3 to Day-1 and once a day on Day 0, seven times in total.\nThe experiment was conducted with groups each consisting of 8 mice. […] The antitumor effect was evaluated by a ratio of average values of the number of survival days of mice in each group to an average value of the number of survival days of mice in the negative control group (hereinafter referred to as a life prolongation ratio)."}, "[7]": {"test_system": "CCR4/EL4 cells", "assay": "antitumor effect of KM 2760 and G-CSF in combination, CCR4/EL4 cells grafted into ventral skin of C57BL/6 mice", "assay_type": "in vivo, C57BL/6 mouse", "method": "CCR4/EL4 cells (WO 01/64754) were suspended, in RPMI 1640 medium (Gibco BRL) at a concentration of 1×10^6 cells/mL, and 100 μL of the suspension was grafted into the right ventral skin of C57BL/6 mice (Nippon Crea, male, 8 weeks old). After, mice were grouped into A to D, each of the agents A to D were administered to each mouse. Incidentally, the day on which the tumor was grafted was defined as Day 0.\nB. Group of administering KM 2760 alone: 100 μg of KM2760 was intravenously administered per mouse on Day 0 and Day 4.\nC. Group of administering G-CSF alone: 10 μg of G-CSF (Neuup Injection 100, manufactured by Kyowa Hakko Kogyo Co., Ltd.) was subcutaneously administered per mouse once a day for 10 days from 4 days before the tumor grafting (hereinafter referred to as Day-4) to Day 5.\nThe experiment was conducted with group A consisting of 10 mice and groups B, C and D each consisting of 7 mice. […] Each of the diluent was administered at 100 μL. A diameter of a tumor was measured with calipers chronologically from Day 0 of each group. A tumor volume was calculated using formula 2 in Example 2.\nSince the tumor death of the mouse was started in group A from Day 17 on, the evaluation of the tumor volume was finished on Day 14.\nThe antitumor effect (T/C value) in each group was evaluated by calculation using the following formula 3 for comparison between the average value of the tumor volume in group A and the average values of the tumor volume in each group on the final evaluation day (Day 14). (T/C value)=(average value of tumor volume in each group on Day 14)/average value of tumor volume in group A on Day 14) (Formula 3)"}, "[8]": {"details": "KM 2760 50 μg i.p. Day 0, M-CSF 100 μg i.p. seven times"}}, "note": "Values joined by “and” are separate entries in the source; they are usually repeats but may differ in a detail not shown here. Identical values can stand only once."}
{"molecule": "O=P1(N(CCCl)CCCl)NCCCO1", "note": "(stereo not drawn) [CPA, cyclophosphamide, reference compound]", "values": [{"measurement": "T/C (V/V0 of group divided by V/V0 of negative control group)", "setting": "[1]", "result": 0.48}]}
{"molecule": "CN(Cc1cnc2nc(N)nc(N)c2n1)c1ccc(C(=O)N[C@@H](CCC(=O)O)C(=O)O)cc1", "note": "[MTX, Methotrexate, reference compound]", "values": [{"measurement": "T/C (V/V0 of group divided by V/V0 of negative control group)", "setting": "[2]", "result": 0.06}]}
{"molecule": "CC[C@]1(O)C[C@H]2CN(CCc3c([nH]c4ccccc34)[C@@](C(=O)OC)(c3cc4c(cc3OC)N(C=O)[C@H]3[C@@](O)(C(=O)OC)[C@H](OC(C)=O)[C@]5(CC)C=CCN6CC[C@]43[C@@H]65)C2)C1", "note": "[VCR, vincristine, reference compound]", "values": [{"measurement": "T/C (V/V0 of group divided by V/V0 of negative control group)", "setting": "[3]", "result": 0.49}]}
{"molecule": "COc1cc([C@@H]2c3cc4c(cc3[C@@H](O[C@@H]3O[C@@H]5CO[C@@H](C)O[C@H]5[C@H](O)[C@H]3O)[C@H]3COC(=O)[C@H]23)OCO4)cc(OC)c1O", "note": "[VP-16, etoposide, reference compound]", "values": [{"measurement": "T/C (V/V0 of group divided by V/V0 of negative control group)", "setting": "[4]", "result": 0.71}]}
{"molecule": "IFN-α", "values": [{"measurement": "T/C value (residual amount of tumor cells in the liver, from liver weight ratio)", "setting": "[5]; Day 14, KM 2760 0.5 μg per mouse i.v. Day 1 and Day 5, IFN-α 5×10^4 units per mouse i.v. Day 1 to Day 5", "result": 0.48}, {"measurement": "antitumor effect compared to untreated group A (liver weight ratio)", "setting": "[5]; FIG. 7, Day 14", "result": "low"}]}
{"molecule": "M-CSF: M-CSF (Leucoprol, manufactured by Kyowa Hakko Kogyo Co., Ltd.) (protein, UniProt P09603 33-554, looked up) Macrophage colony-stimulating …: EEVSEYCSHMIGSGHLQSLQRLIDSQMETSCQITFEFVDQEQLKDPVCYLKKAFLLVQDIMEDTMRFRDNTPNAIAIVQLQELSLRLKSCFTKDYEEHDKACVRTFYETPLQLLEKVKNVFNETKNLLDKDWNIFSKNCNNSFAECSSQDVVTKPDCNCLYPKAIPSSDPASVSPHQPLAPSMAPVAGLTWEDSEGTEGSSLLPGEQPLHTVDPGSAKQRPPRSTCQSFEPPETPVVKDSTIGGSPQPRPSVGAFNPGMEDILDSAMGTNWVPEEASGEASEIPVPQGTELSPSRPGGGSMQTEPARPSNFLSASSPLPASAKGQQPADVTGTALPRVGPVRPTGQDWNHTPQKTDHPSALLRDPPEPGSPRISSLRPQGLSNPSTLSAQPQLSRSHSSGSVLPLGELEGRRSTRDRRSPAEPEGGPASEGAARPLPRFNSVPLTDTGHERQSEGSFSPQLQESVFHLLVPSVILVLLAVGGLLFYRWRRRSHQEPQRADSPLEQPEGSPLTQDDRQVELPV", "values": [{"measurement": "Number of survival days (each mouse)", "setting": "[6]; 8 mice per group, KM 2760 50 μg per mouse i.p. Day 0, M-CSF 100 μg per mouse i.p. seven times Day-3 to Day 0, observation to Day 50", "result": "17 days (2×) and 18 days (3×) and 19 days (2×) and 22 days"}, {"measurement": "Average number of survival days", "setting": "[6]; [8]", "result": 18.8, "unit": "days"}, {"measurement": "Life prolongation ratio (average survival days of group / negative control group)", "setting": "[6]; [8]", "result": 0.974}, {"measurement": "antitumor effect in comparison with untreated Group A (survival)", "setting": "[6]; Table 7", "result": "no antitumor effect"}]}
{"molecule": "G-CSF: G-CSF (Neuup Injection 100, manufactured by Kyowa Hakko Kogyo Co., Ltd.) (protein, UniProt P09919 31-207, looked up, nartograstim) Granulocyte …: TPLGPASSLPQSFLLKCLEQVRKIQGDGAALQEKLVSECATYKLCHPEELVLLGHSLGIPWAPLSSCPSQALQLAGCLSQLHSGLFLYQGLLQALEGISPELGPTLDTLQLDVADFATTIWQQMEELGMAPALQPTQGAMPAFASAFQRRAGGVLVASHLQSFLEVSYRVLRHLAQP", "values": [{"measurement": "T/C value (average tumor volume of group / group A)", "setting": "[7]; Day 14, KM 2760 100 μg per mouse i.v. Day 0 and Day 4, G-CSF 10 μg per mouse s.c. once a day Day-4 to Day 5", "result": 0.63}, {"measurement": "antitumor effect compared to untreated group A (tumor volume)", "setting": "[7]; FIG. 6, up to Day 14", "result": "low"}]}
